Residues, ends and D or L forms follow the SMILES beside them.
Experiments:
S. aureus USA300 [1] = assay: Inhibition of biofilm growth (XTT); assay type: cell-based, Staphylococcus aureus; design: unit of the concentration uncertain
Description: (§1) Three types of experiments were conducted to evaluate the anti-biofilm activity of these peptides against S. aureus USA300, which was grown in tryptic soy broth (TSB) media in flat bottom, 96-well, polystyrene microtiter plates (Mishra et al. (2015) RSC Advances 5:59758-59769; Dean et al. (2011) BMC Microbiol., 11:114).
The second experiment evaluates the ability of the peptide to inhibit biofilm formation of S. aureus USA300 in 24 hours. In brief, S. aureus USA300 (10^5 CFU/mL) was made in fresh TSB media from exponentially growing bacteria. 180 μL of this bacterial culture was added to each well of the microtiter plates containing 20 μL of 10× peptide solution.

E. coli ATCC 25922 = assay type: cell-based, Escherichia coli; settings: ATCC 25922, 20 h
Description: (§2) The antimicrobial activity of peptides was evaluated using a standard broth microdilution protocol. In brief, exponential phase bacteria at 10^6 CFU were incubated with serially diluted peptides overnight for ˜20 hours at 37° C. The plates were read on a ChroMate® 4300 Microplate Reader at 630 nm (GMI, Ramsey, Minn.).

S. aureus USA300 [2] = assay: Inhibition of bacterial attachment (XTT); assay type: cell-based, Staphylococcus aureus; settings: 25 μM
Description: as §1
The first experiment measures the ability of the peptide to inhibit bacterial attachment, the initial step for biofilm formation. In short, overnight cultures of S. aureus USA300 were grown in TSB media to an optical density (600 nm) of ˜1.0. 180 μL of this culture was added to each well of the microtiter plates containing 20 μL of 10× peptide solution. The plates are then incubated at 37° C. for 1 hour. Media with bacteria were then pipetted out and chambers were washed with 1×PBS to remove non-adherent cells. The inhibition of biofilms was estimated by XTT [2,3-bis(2-methyloxy-4-nitro-5-sulfophenyl)-2H-tertazolium-5-carboxanilide] assay by following the manufacturer's instructions with modifications. 180 μL of fresh TSB and 20 μL of XTT solution was added to each well and the plates were again incubated for 2 hours at 37° C. Absorbance at 450 nm (only media with XTT containing wells served as the blank) was obtained using a Chromate® microtiter plate reader. […]

S. aureus USA300 [3] = assay type: cell-based, Staphylococcus aureus; settings: USA300, 20 h
Description: as §2

human red blood cells = assay: Hemolytic ability (Example 3); assay type: cell-based; settings: concentration that causes 50% hemolysis
Summary of the method: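 Human red blood cells were washed three times in PBS, diluted to 2%, exposed to peptide for one hour at 37 °C and centrifuged. Hemoglobin in the supernatant was read at 545 nm. Percent lysis is relative to 1% Triton X-100 (100%) and PBS (0%).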

proteinase K = molecular target: T1, proteinase K (Parengyodontium album, UniProt P06873); assay: Peptide stability to proteases (SDS-PAGE); assay type: in vitro ADME, fungal; settings: peptide:protease 40:1, 24 hours, 37° C.
T1 construct: purchased Sigma or Fisher
T1 sequence (P06873 106-384): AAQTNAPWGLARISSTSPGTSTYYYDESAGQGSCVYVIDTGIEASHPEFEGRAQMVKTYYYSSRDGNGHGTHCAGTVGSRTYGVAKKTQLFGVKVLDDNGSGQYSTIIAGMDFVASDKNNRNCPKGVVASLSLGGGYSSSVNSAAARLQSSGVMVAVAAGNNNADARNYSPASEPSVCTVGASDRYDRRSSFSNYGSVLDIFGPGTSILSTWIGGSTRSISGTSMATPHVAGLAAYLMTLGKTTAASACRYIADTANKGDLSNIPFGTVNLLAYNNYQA
Description: (§3) When degraded, no peptide band could be detected on a 5% stacking/18% resolving tricine gel after 2-4 hours incubation at 37° C. Briefly, a solution (100 μL) containing 250 μM peptide and 6.25 μM protease (Sigma or Fisher) in 10 mM PBS buffer (pH 8) was incubated at 37° C. (peptide/protease molar ratio, 40:1). Aliquots (10 μL) of the reaction solutions were taken at 0, 6, and 24 hours and immediately mixed with 10 μL of 2× SDS loading buffer followed by boiling for 5 minutes to stop the reaction. […] After electrophoresis, the gel was stained by Brilliant Blue R-250 (Fisher) and destained to view the peptide bands.

S. aureus USA300 [4] = assay: FITC entry into live bacteria, confocal microscopy; assay type: cell-based, Staphylococcus aureus; settings: peptide and FITC 9 μM
Description: The entrance of a fluorescent dye into live bacterial cells was also followed by confocal microscopy (Mishra et al. (2015) RSC Advances 5:59758-59769). In brief, S. aureus USA300 was grown to the exponential phase from the overnight culture. The cells were then washed twice with fresh 1×PBS (pH 7.2) and the final cell density was adjusted to 1×10^8 CFU/mL. 1500 μL of the culture was added to the chambers of cuvettes (borosilicate cover glass systems; Nunc Cat. No. 155380) with equimolar concentrations of TetraF2W-RK and fluorescein isothiocyanate FITC (9 μM). The samples were examined with a confocal laser scanning microscope (Zeiss 710) with live time series of picture taken every 5 seconds for 5 minutes and the data were processed using Zen 2010 software.

S. aureus USA300 [5] = assay: Live cell penetration experiment (FITC, confocal); assay type: cell-based, Staphylococcus aureus; settings: peptide and FITC 12.5 μM
Description: The entrance of a fluorescent dye into live bacterial cells was followed by confocal microscopy (Mishra et al. (2015) RSC Advances 5:59758-59769). In short, S. aureus USA300 was grown to the exponential phase from the overnight culture. The cells were then washed twice with fresh 1×PBS (pH 7.2) and the final cell density was adjusted to 1×10^8 CFU/mL. 1500 μL of the culture was added to the chambers of cuvettes (borosilicate cover glass systems) with equimolar concentrations of TetraF2W-RK and fluorescein isothiocyanate FITC (12.5 μM). The samples were examined with a confocal laser scanning microscope (Zeiss 710) with a series of live time pictures taken at every 5 seconds for 5 minutes and the data were processed using Zen 2010 software.

S. aureus V8 protease = molecular target: T2, S. aureus V8 protease (Staphylococcus aureus, UniProt P0C1U8); assay type: in vitro ADME; settings: peptide:protease 40:1, 24 hours, 37° C.
T2 construct: purchased Sigma or Fisher
T2 sequence (P0C1U8 69-336): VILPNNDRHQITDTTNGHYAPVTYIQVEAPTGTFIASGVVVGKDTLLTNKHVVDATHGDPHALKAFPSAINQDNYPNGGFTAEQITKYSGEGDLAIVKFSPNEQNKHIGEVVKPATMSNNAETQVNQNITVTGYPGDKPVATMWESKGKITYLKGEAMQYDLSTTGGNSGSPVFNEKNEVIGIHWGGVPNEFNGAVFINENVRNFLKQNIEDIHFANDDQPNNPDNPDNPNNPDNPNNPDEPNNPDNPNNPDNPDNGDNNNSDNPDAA
Description: as §3

| Compound | inhibition of biofilm growth (S. aureus USA300 [1]; 6.25 (unit uncertain) as printed) | inhibition of biofilm formation (S. aureus USA300 [1]; 25 (unit uncertain) as printed) | E. coli (MIC) (E. coli ATCC 25922) | reduction of adherence of bacterial cells (S. aureus USA300 [2]) | S. aureus (MIC) (S. aureus USA300 [3]) | HL50 (human red blood cells) | stability to fungal proteinase K (proteinase K) | time for FITC to enter the majority of cells (S. aureus USA300 [4]) | time to entry of FITC into bacteria after peptide treatment (S. aureus USA300 [5]) | stability to S. aureus V8 protease (S. aureus V8 protease) |
| --- | --- | --- | --- | --- | --- | --- | --- | --- | --- | --- |
| CC[C@H](C)[C@H](NC(=O)[C@H](CCCNC(=N)N)NC(=O)[C@H](CCCNC(=N)N)NC(=O)[C@H](CC(C)C)NC(=O)[C@H](Cc1c[nH]c2ccccc12)NC(=O)[C@H](Cc1c[nH]c2ccccc12)NC(=O)[C@@H](N)Cc1c[nH]c2ccccc12)C(=O)N[C@@H](Cc1c[nH]c2ccccc12)C(N)=O [TetraF2W-RR, WWWLRRIW] (H-WWWLRRIW-NH2; N-terminus assumed) | actively inhibited biofilm growth | completely inhibited | 6.2 µM | 83% | 3.1 µM | 35 µM |  |  |  |  |
| CC[C@H](C)[C@H](NC(=O)[C@H](CCCCN)NC(=O)[C@H](CCCNC(=N)N)NC(=O)[C@H](CC(C)C)NC(=O)[C@H](Cc1c[nH]c2ccccc12)NC(=O)[C@H](Cc1c[nH]c2ccccc12)NC(=O)[C@@H](N)Cc1c[nH]c2ccccc12)C(=O)N[C@@H](Cc1c[nH]c2ccccc12)C(N)=O [TetraF2W-RK, WWWLRKIW] (H-WWWLRKIW-NH2; N-terminus assumed) |  |  |  |  |  |  | completely degraded | 30 s | 30 s | not cut |
